From patent US20070142462A1, “Method of Treating Cancer” (The University of Utah, priority 2000, published 2007)

How the values were obtained:
[1] = system: breast carcinoma MDA-MB-453 cells; test: MTT proliferation assay, MDA-MB-453 breast carcinoma; type: cell-based, human; settings: Catalase 3000 U/ml; 10% FBS; 72 hours; mean±SE vs control
Protocol: Measurement of Proliferation in Cell Cultures. […] This assay empirically distinguishes between dead and living cells.
(§1) Cell Culture Treatments. The effect of antioxidant treatments on proliferation of malignant cell lines was studied in cultures stimulated with 10% FBS. Cell numbers were quantitated by the MTT assay 24-72 hours later. In some experiments, antioxidants were added immediately after cells were plated. In other experiments, cells were plated and allowed to grow for 24 hours before fresh media with antioxidants was added, and cell numbers were studied by the MTT assay 48 hours later.
Cells stimulated with 10% FBS were plated at a density of 50,000 cells per well. DMSO and antioxidants were added to cell wells at the indicated concentrations. […] Each value represents a mean of at least 4 experiments.

M1619 melanoma cells = test: MTT proliferation assay, M1619 melanoma; type: cell-based, human
Protocol: Measurement of Proliferation in Cell Cultures. Proliferation of cultured cells was quantitated using a previously reported calorimetric method based upon metabolic reduction of the soluble yellow tetrazolium dye 3-[4,5-dimethylthiazol]-2yl-2,5-diphenyl tetrazolium bromide (MTT) to its insoluble purple formazan by the action of mitochondrial succinyl dehydrogenase. […] This assay empirically distinguishes between dead and living cells. For proliferation studies, cells were seeded into 24-well uncoated plastic plates (Costar) at 15,000-50,000 cells per well and cultured with respective media and mitogens. After 24-96 hours, medium was removed, cells were washed twice with 1 ml of sterile Dulbecco's modified phosphate buffered saline without Ca^2+ or Mg^2+ (DPBS), the medium was replaced with 1 ml/well fresh medium containing 100 μg/ml MTT, and plates were incubated an additional hour. MTT-containing medium was removed, 0.5 ml dimethylsulfoxide (DMSO) was added to each well, and the absorbance of the solubilized purple formazan dye was measured at 540 nm. A total of 4-6 wells was studied at each treatment condition. Preliminary studies were performed with 50-200 μg/ml MTT incubated for 15 min to 3 hours to determine the optimum concentration and incubation time at which the rate of conversion was linear and proportional to the number of cells present.
as §1
A. M1619 melanoma cells stimulated with 10% fetal bovine serum (FBS) were plated at a density of 50,000 cells per well and antioxidants were added to wells at the indicated concentrations (mM or U/ml). After 48 hours, proliferation was quantitated by assessing the cell number-dependent reduction of the soluble yellow tetrazolium dye 3-[4,5-dimethylthiazol]-2yl-2,5-diphenyl tetrazolium bromide (MTT) to its insoluble formazan, measured as the absorbance at 540 nm (A540). The antioxidants tested included no antioxidant (control, i.e., FBS alone), 1000 U/ml SOD, 20 mM NAC, 500 U/ml, 1000 U/ml, and 3000 U/ml of catalase, and boiled […] catalase.
B. In a separate experiment, 2 μl/well of DMSO (served as control), 5 μM, 10 μM, and 25 μM Ebselen were tested on M1619 melanoma cells as described above, except that the cells were cultured for 72 hours before proliferation was measured.
C. 3000 U/ml Catalase, 2 μl/well DMSO, 25 μM Ebselen, and 50 μM Ebselen were tested as described above except that the compounds were added 24 hours after M1619 cells were plated. After the addition of antioxidants, the cells were incubated for an additional 48 hours and cell proliferation was quantitated. […]

## Catalase
[1]
  Percent Growth Inhibition: 49 ± 2
M1619 melanoma cells; 10% FBS, agents added at plating, 48 hours (ebselen 72 hours)
  Proliferation of M1619 melanoma cells (MTT, A540): reduced proliferation
M1619 melanoma cells; catalase 3000 U/ml, Ebselen 25 and 50 μM, further 48 hours
  Proliferation of M1619 melanoma cells, agents added 24 hours after plating: antiproliferative
